# Laboratory results from ChEMBL document CHEMBL1201862, “PubChem BioAssay data set” (2004).
#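 These data come from cells grown in 96-well plates and exposed to compound for 48 hours at five concentrations. At the GI50, growth is halved.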 The source made the active and inactive calls. Rule as the data show it: active = GI50 up to about 1.1 µM and inactive = higher.
# Key:
# Assay in all cases: NCI tumour cell line growth inhibition, 48 h
# 786-0 = test system: 786-0
# A498 = test system: A498
# A549 = test system: A549
# ACHN = test system: ACHN
# CAKI-1 = test system: CAKI-1
# CCRF-CEM = test system: CCRF-CEM
# DLD-1 = test system: DLD-1
# DMS-114 = test system: DMS-114
# DMS-273 = test system: DMS-273
# EKVX = test system: EKVX
# HCC 2998 = test system: HCC 2998
# HCT-116 = test system: HCT-116
# HCT-15 = test system: HCT-15
# HL-60 = test system: HL-60
# HOP-18 = test system: HOP-18
# HOP-62 = test system: HOP-62
# HOP-92 = test system: HOP-92
# HT-29 = test system: HT-29
# IGROV-1 = test system: IGROV-1
# K562 = test system: K562
# KM-20L2 = test system: KM-20L2
# KM12 = test system: KM12
# LOX IMVI = test system: LOX IMVI
# LXFL 529 = test system: LXFL 529
# M14 = test system: M14
# M19-MEL = test system: M19-MEL
# MOLT-4 = test system: MOLT-4
# Malme-3M = test system: Malme-3M
# NCI-H226 = test system: NCI-H226
# NCI-H23 = test system: NCI-H23
# NCI-H460 = test system: NCI-H460
# OVCAR-3 = test system: OVCAR-3
# OVCAR-4 = test system: OVCAR-4
# OVCAR-5 = test system: OVCAR-5
# OVCAR-8 = test system: OVCAR-8
# RPMI-8226 = test system: RPMI-8226
# RXF 393 = test system: RXF 393
# RXF 631 = test system: RXF 631
# SF-268 = test system: SF-268
# SF-295 = test system: SF-295
# SF-539 = test system: SF-539
# SK-MEL-28 = test system: SK-MEL-28
# SK-MEL-2 = test system: SK-MEL-2
# SK-MEL-5 = test system: SK-MEL-5
# SN12C = test system: SN12C
# SNB-19 = test system: SNB-19
# SNB-75 = test system: SNB-75
# SNB-78 = test system: SNB-78
# SR = test system: SR
# SW-620 = test system: SW-620
# TK-10 = test system: TK-10
# UACC-257 = test system: UACC-257
# UACC-62 = test system: UACC-62
# UO-31 = test system: UO-31
# XF498 = test system: XF498
# COLO 205 = test system: COLO 205
# NCI-H522 = test system: NCI-H522
# SK-OV-3 = test system: SK-OV-3
# U-251 = test system: U-251
compound,measurement,setting,value
COc1ccccc1/C=C1\CCC(CCN2CCOCC2)C1=O (centres undefined),GI50,786-0,> 100 µM (inactive)
same,GI50,A498,> 100 µM (inactive)
same,GI50,A549,> 100 µM (inactive)
same,GI50,ACHN,75.2 µM (inactive)
same,GI50,CAKI-1,> 100 µM (inactive)
same,GI50,CCRF-CEM,38.7 µM (inactive)
same,GI50,DLD-1,> 100 µM (inactive)
same,GI50,DMS-114,42 µM (inactive)
same,GI50,DMS-273,> 100 µM (inactive)
same,GI50,EKVX,> 100 µM (inactive)
same,GI50,HCC 2998,66.1 µM (inactive)
same,GI50,HCT-116,70.8 µM (inactive)
same,GI50,HCT-15,91.8 µM
same,GI50,HL-60,31.5 µM (inactive)
same,GI50,HOP-18,> 100 µM (inactive)
same,GI50,HOP-62,> 100 µM (inactive)
same,GI50,HOP-92,> 100 µM (inactive)
same,GI50,HT-29,50.1 µM (inactive)
same,GI50,IGROV-1,> 100 µM (inactive)
same,GI50,K562,41.1 µM (inactive)
same,GI50,KM-20L2,75 µM (inactive)
same,GI50,KM12,> 100 µM (inactive)
same,GI50,LOX IMVI,63.2 µM (inactive)
same,GI50,LXFL 529,> 100 µM (inactive)
same,GI50,M14,> 100 µM (inactive)
same,GI50,M19-MEL,> 100 µM (inactive)
same,GI50,MOLT-4,48.1 µM (inactive)
same,GI50,Malme-3M,> 100 µM (inactive)
same,GI50,NCI-H226,> 100 µM (inactive)
same,GI50,NCI-H23,> 100 µM (inactive)
same,GI50,NCI-H460,90.8 µM (inactive)
same,GI50,OVCAR-3,> 100 µM (inactive)
same,GI50,OVCAR-4,37.8 µM (inactive)
same,GI50,OVCAR-5,> 100 µM (inactive)
same,GI50,OVCAR-8,> 100 µM (inactive)
same,GI50,RPMI-8226,34 µM (inactive)
same,GI50,RXF 393,59.8 µM (inactive)
same,GI50,RXF 631,92.7 µM (inactive)
same,GI50,SF-268,> 100 µM (inactive)
same,GI50,SF-295,> 100 µM (inactive)
same,GI50,SF-539,> 100 µM (inactive)
same,GI50,SK-MEL-28,> 100 µM (inactive)
same,GI50,SK-MEL-2,> 100 µM (inactive)
same,GI50,SK-MEL-5,68.1 µM (inactive)
same,GI50,SN12C,> 100 µM (inactive)
same,GI50,SNB-19,> 100 µM (inactive)
same,GI50,SNB-75,49 µM (inactive)
same,GI50,SNB-78,> 100 µM (inactive)
same,GI50,SR,> 100 µM (inactive)
same,GI50,SW-620,> 100 µM (inactive)
same,GI50,TK-10,93.1 µM (inactive)
same,GI50,UACC-257,> 100 µM (inactive)
same,GI50,UACC-62,> 100 µM (inactive)
same,GI50,UO-31,90.4 µM (inactive)
same,GI50,XF498,> 100 µM (inactive)
O=S(O)CCCCCSSCCCCSSCCCCCS(=O)O,GI50,786-0,> 100 µM (inactive)
same,GI50,A498,> 100 µM (inactive)
same,GI50,A549,> 100 µM (inactive)
same,GI50,ACHN,> 100 µM (inactive)
same,GI50,CAKI-1,> 100 µM (inactive)
same,GI50,CCRF-CEM,41.2 µM (inactive)
same,GI50,COLO 205,> 100 µM (inactive)
same,GI50,DLD-1,> 100 µM (inactive)
same,GI50,DMS-114,> 100 µM (inactive)
same,GI50,DMS-273,> 100 µM (inactive)
same,GI50,EKVX,> 100 µM (inactive)
same,GI50,HCT-15,> 100 µM
same,GI50,HOP-18,> 100 µM (inactive)
same,GI50,HOP-62,> 100 µM (inactive)
same,GI50,HOP-92,> 100 µM (inactive)
same,GI50,HT-29,> 100 µM (inactive)
same,GI50,IGROV-1,> 100 µM (inactive)
same,GI50,K562,48.1 µM (inactive)
same,GI50,KM-20L2,> 100 µM (inactive)
same,GI50,KM12,> 100 µM (inactive)
same,GI50,LOX IMVI,> 100 µM (inactive)
same,GI50,LXFL 529,79.6 µM (inactive)
same,GI50,M14,> 100 µM (inactive)
same,GI50,M19-MEL,> 100 µM (inactive)
same,GI50,MOLT-4,33.8 µM (inactive)
same,GI50,Malme-3M,27.7 µM (inactive)
same,GI50,NCI-H23,> 100 µM (inactive)
same,GI50,NCI-H460,> 100 µM (inactive)
same,GI50,NCI-H522,64.9 µM (inactive)
same,GI50,OVCAR-3,> 100 µM (inactive)
same,GI50,OVCAR-4,> 100 µM (inactive)
same,GI50,OVCAR-5,> 100 µM (inactive)
same,GI50,OVCAR-8,> 100 µM (inactive)
same,GI50,RPMI-8226,97.5 µM (inactive)
same,GI50,RXF 393,> 100 µM (inactive)
same,GI50,RXF 631,> 100 µM (inactive)
same,GI50,SF-268,> 100 µM (inactive)
same,GI50,SF-295,> 100 µM (inactive)
same,GI50,SF-539,> 100 µM (inactive)
same,GI50,SK-MEL-28,> 100 µM (inactive)
same,GI50,SK-MEL-2,> 100 µM (inactive)
same,GI50,SK-MEL-5,> 100 µM (inactive)
same,GI50,SK-OV-3,> 100 µM (inactive)
same,GI50,SN12C,> 100 µM (inactive)
same,GI50,SNB-19,> 100 µM (inactive)
same,GI50,SNB-75,30.8 µM (inactive)
same,GI50,SNB-78,> 100 µM (inactive)
same,GI50,SW-620,> 100 µM (inactive)
same,GI50,TK-10,> 100 µM (inactive)
same,GI50,U-251,> 100 µM (inactive)
same,GI50,UACC-257,> 100 µM (inactive)
same,GI50,UACC-62,> 100 µM (inactive)
same,GI50,UO-31,85.3 µM (inactive)
same,GI50,XF498,46.8 µM (inactive)
